# Measured values published in PMC3922815 (PLoS ONE, 2014).
# Several values for one entry are separate records, joined by “and”; a condition that tells them apart may be missing. Equal entries are not always repeated. Where two headings read alike, the source gives them in different places.
# How the values were obtained:
# [1] = target: native GABAA receptors from rat-brain homogenates
# human GABAA α1β2γ2 [2] = target: T1, human GABAA α1β2γ2 (Homo sapiens, UniProt P14867+P18507); conditions: for Binding affinity normalized to GABAA α2 (ratio of Ki values): Ki α1β2γ2 / Ki α2β2γ2
# human GABAA α1β2γ2 [3] = target: T1, human GABAA α1β2γ2; test: biochemical
# human GABAA α2β2γ2 [4] = target: T2, human GABAA α2β2γ2 (Homo sapiens, UniProt P18507+P47869); test: biochemical
# human GABAA α3β2γ2 [5] = target: T3, human GABAA α3β2γ2 (Homo sapiens, UniProt P18507+P34903); test: biochemical
# human GABAA α5β2γ2 [6] = target: T4, human GABAA α5β2γ2 (Homo sapiens, UniProt P18507+P31644); test: biochemical
# human GABAA α2β2γ2 [7] = target: T2, human GABAA α2β2γ2
# human GABAA α3β2γ2 [8] = target: T3, human GABAA α3β2γ2; conditions: Ki α3β2γ2 / Ki α2β2γ2
# human GABAA α5β2γ2 [9] = target: T4, human GABAA α5β2γ2; conditions: Ki α5β2γ2 / Ki α2β2γ2
# [10] = target: human GABAA-receptor complexes α1β2γ2, α2β2γ2, α3β2γ2, α5β2γ2
# [11] = tested on: PTZ and audiogenic-induced seizures; set-up: method as in PMID 10816315; conditions: PTZ and audiogenic-induced seizures in mice; cited from earlier work
# human GABAA α2β2γ2 [12] = target: T2, human GABAA α2β2γ2; remark: listed apart in the source
# human GABAA α3β2γ2 [13] = target: T3, human GABAA α3β2γ2
# human GABAA α5β2γ2 [14] = target: T4, human GABAA α5β2γ2
# [15] = cited from earlier work
# [16] = tested on: refractory epilepsy patients; set-up: method as in PMID 3828198; conditions: dosages giving concentrations similar to those after clobazam dosing; cited from earlier work
# [17] = tested on: pentylenetetrazole (PTZ)-induced seizures; set-up: method as in PMID 17092983; conditions: greatest diazepam dosage, cited from earlier work
# [18] = tested on: tonic convulsions following PTZ administration; set-up: method as in PMID 11021797; conditions: cited from earlier work; for percentage of mice convulsing: 3 mg/kg
# T2 sequence (P47869 29-451): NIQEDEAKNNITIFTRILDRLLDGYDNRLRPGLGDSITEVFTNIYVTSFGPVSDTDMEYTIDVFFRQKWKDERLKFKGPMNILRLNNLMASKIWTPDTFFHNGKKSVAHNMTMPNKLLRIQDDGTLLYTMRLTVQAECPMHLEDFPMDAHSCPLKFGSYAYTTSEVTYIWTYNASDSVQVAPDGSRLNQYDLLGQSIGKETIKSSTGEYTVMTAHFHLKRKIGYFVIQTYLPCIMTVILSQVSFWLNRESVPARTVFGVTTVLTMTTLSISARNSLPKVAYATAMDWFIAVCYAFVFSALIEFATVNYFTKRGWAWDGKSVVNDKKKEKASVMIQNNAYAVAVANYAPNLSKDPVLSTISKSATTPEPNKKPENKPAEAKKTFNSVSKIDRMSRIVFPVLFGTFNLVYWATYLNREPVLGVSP
# T2 sequence (P47870 25-512 partner limits assumed): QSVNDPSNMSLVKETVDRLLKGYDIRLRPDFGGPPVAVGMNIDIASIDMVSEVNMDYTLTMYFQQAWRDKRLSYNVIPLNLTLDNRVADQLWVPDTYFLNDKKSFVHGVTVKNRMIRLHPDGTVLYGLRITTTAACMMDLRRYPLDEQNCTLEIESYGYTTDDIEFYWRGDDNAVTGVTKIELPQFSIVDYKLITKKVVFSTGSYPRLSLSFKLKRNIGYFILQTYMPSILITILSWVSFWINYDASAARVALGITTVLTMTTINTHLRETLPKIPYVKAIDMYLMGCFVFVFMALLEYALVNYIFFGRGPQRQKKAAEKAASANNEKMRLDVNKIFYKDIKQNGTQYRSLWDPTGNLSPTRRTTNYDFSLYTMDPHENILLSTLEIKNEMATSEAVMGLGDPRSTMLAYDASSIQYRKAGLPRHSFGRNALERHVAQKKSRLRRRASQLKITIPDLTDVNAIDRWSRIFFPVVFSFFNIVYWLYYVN
# T2 sequence (P18507 40-475): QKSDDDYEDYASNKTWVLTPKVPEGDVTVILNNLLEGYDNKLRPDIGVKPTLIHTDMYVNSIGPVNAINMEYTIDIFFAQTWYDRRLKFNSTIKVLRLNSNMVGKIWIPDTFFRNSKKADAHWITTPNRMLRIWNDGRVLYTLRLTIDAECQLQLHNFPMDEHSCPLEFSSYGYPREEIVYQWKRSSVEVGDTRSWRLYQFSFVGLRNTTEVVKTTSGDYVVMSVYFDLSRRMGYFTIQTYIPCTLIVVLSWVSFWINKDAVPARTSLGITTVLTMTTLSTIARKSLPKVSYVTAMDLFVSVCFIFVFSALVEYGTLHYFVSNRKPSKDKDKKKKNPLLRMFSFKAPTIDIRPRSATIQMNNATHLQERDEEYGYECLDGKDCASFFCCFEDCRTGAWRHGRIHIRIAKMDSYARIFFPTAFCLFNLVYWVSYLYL
# T1 sequence (P14867 28-456): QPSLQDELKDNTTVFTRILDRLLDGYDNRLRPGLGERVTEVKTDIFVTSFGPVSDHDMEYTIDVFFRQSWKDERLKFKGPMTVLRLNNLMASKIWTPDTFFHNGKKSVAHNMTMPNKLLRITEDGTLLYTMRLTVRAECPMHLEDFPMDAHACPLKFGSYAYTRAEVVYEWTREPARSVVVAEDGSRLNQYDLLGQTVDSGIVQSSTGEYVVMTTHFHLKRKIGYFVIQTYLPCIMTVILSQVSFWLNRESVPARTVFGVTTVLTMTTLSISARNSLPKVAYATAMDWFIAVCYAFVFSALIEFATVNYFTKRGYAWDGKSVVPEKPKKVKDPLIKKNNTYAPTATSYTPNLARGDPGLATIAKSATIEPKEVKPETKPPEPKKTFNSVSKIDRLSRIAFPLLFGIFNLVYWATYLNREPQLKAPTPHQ
# T1 sequence (P47870 25-512 partner limits assumed): as the sequence (P47870 25-512 partner limits assumed) above
# T1 sequence (P18507 40-475): as the sequence (P18507 40-475) above
# T3 sequence (P34903 29-492): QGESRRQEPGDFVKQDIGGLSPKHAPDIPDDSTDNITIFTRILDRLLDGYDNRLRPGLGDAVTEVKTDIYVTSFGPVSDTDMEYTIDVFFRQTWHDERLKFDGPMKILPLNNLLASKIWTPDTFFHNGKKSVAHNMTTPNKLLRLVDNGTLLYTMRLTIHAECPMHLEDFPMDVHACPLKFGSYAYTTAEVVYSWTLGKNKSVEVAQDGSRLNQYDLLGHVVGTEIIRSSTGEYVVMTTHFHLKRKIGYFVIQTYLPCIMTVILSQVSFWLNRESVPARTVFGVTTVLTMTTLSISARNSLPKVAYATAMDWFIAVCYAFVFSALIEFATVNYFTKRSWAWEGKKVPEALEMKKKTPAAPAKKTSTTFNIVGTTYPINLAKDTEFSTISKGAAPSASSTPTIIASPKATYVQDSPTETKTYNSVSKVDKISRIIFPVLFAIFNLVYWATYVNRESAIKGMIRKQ
# T3 sequence (P47870 25-512 partner limits assumed): as the sequence (P47870 25-512 partner limits assumed) above
# T3 sequence (P18507 40-475): as the sequence (P18507 40-475) above
# T4 sequence (P31644 32-462): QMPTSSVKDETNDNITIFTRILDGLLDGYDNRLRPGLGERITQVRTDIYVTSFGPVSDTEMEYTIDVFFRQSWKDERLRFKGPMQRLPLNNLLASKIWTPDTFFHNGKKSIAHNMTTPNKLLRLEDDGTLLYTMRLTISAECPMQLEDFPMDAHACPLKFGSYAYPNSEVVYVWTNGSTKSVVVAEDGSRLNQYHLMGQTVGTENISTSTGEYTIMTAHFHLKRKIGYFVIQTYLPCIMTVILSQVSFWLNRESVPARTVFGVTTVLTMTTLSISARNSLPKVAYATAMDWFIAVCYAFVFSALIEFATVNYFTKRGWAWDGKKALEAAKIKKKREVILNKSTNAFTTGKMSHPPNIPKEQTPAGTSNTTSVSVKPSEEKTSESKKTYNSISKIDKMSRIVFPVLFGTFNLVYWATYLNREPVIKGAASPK
# T4 sequence (P47870 25-512 partner limits assumed): as the sequence (P47870 25-512 partner limits assumed) above
# T4 sequence (P18507 40-475): as the sequence (P18507 40-475) above
structure (smiles),measurement,setting,value
CN1C(=O)CC(=O)N(c2ccccc2)c2cc(Cl)ccc21 [Clobazam],Ki,[1],151 nM
same,Binding affinity normalized to GABAA α2 (ratio of Ki values),human GABAA α1β2γ2 [2],2.5
same,Ki,human GABAA α1β2γ2 [3],519 nM
same,Ki,human GABAA α2β2γ2 [4],205 nM
same,Ki,human GABAA α3β2γ2 [5],753 nM
same,Ki,human GABAA α5β2γ2 [6],331 nM
same,Binding affinity normalized to GABAA α2 (ratio of Ki values),human GABAA α2β2γ2 [7],1
same,Binding affinity normalized to GABAA α2 (ratio of Ki values),human GABAA α3β2γ2 [8],3.7
same,Binding affinity normalized to GABAA α2 (ratio of Ki values),human GABAA α5β2γ2 [9],1.6
O=C1CN=C(c2ccccc2Cl)c2cc([N+](=O)[O-])ccc2N1 [Clonazepam],Ki,[1],0.263 nM and 0.26 nM
same,Binding affinity normalized to GABAA α2 (ratio of Ki values),human GABAA α1β2γ2 [2],0.9
same,Ki,[10],0.65 to 2.2 nM
same,Ki,human GABAA α1β2γ2 [3],0.65 nM
same,Ki,human GABAA α2β2γ2 [4],0.72 nM
same,Ki,human GABAA α3β2γ2 [5],2.24 nM
same,Ki,human GABAA α5β2γ2 [6],0.78 nM
same,Binding affinity normalized to GABAA α2 (ratio of Ki values),human GABAA α2β2γ2 [7],1
same,Binding affinity normalized to GABAA α2 (ratio of Ki values),human GABAA α5β2γ2 [9],1.1
"Cn1ncnc1COc1nn2c(-c3cc(F)ccc3F)nnc2cc1C(C)(C)C [L-838,417]",anticonvulsant activity,[11],retains anticonvulsant activity
O=C1CC(=O)N(c2ccccc2)c2cc(Cl)ccc2N1 [N-desmethylclobazam],Ki,[1],132 nM and 133 nM
same,Ki,human GABAA α1β2γ2 [2],631 nM and 634 nM
same,Binding affinity normalized to GABAA α2 (ratio of Ki values),human GABAA α1β2γ2 [2],4.3
same,Ki,human GABAA α2β2γ2 [12],148 nM and 147 nM
same,Ki,human GABAA α3β2γ2 [13],661 nM and 668 nM
same,Ki,human GABAA α5β2γ2 [14],295 nM and 292 nM
same,half-life,[15]; humans,79 h
same,concentration of N-CLB relative to the parent compound,[15]; prolonged clinical use of CLB,more than 2 fold
same,patients responding favorably,[16],8 of 9
same,Binding affinity normalized to GABAA α2 (ratio of Ki values),human GABAA α2β2γ2 [7],1
same,Binding affinity normalized to GABAA α2 (ratio of Ki values),human GABAA α3β2γ2 [8],4.6
same,Binding affinity normalized to GABAA α2 (ratio of Ki values),human GABAA α5β2γ2 [9],2.0
Cc1ccc(-c2nc3ccc(C)cn3c2CC(=O)N(C)C)cc1 [Zolpidem],Ki,[10],30 to 5430 nM
same,Ki,human GABAA α5β2γ2 [6],5430 nM
CN1C(=O)CN=C(c2ccccc2F)c2cc([N+](=O)[O-])ccc21 [^3H-flunitrazepam],Kd,"[1]; read-out: Kd (tracer equilibrium dissociation constant), saturation binding, rat-brain homogenates",1.5 ± 0.2 nM
CN1C(=O)CN=C(c2ccccc2)c2cc(Cl)ccc21 [diazepam],seizure level on the Racine scale,"[17]; wild-type mice, reversed from 6",1
same,seizure scoring on the Racine scale,[17]; α2(H101R) mice,approximately 3.5
same,percentage of mice convulsing,[18]; wild-type mice,approximately 20%
same,percentage of mice convulsing,[18]; α2(H101R) mice,approximately 50%
same,protection from tonic convulsions,"[18]; 10 and 30 mg/kg, both wild-type and α2(H101R) mice",100%
